From paper PMC6199744, “Development of Chemical Proteomics for the Folateome and Analysis of the Kinetoplastid Folateome” (ACS Infectious Diseases, 2018)

Tested on: L. major lysate proteins
Test: Multitargeted bead mixture chemoproteomics, single concentration competition, proteome-wide
Format: binding
Settings: for fold change: vehicle control = 1

Nc1nc2c(c(=O)[nH]1)N(C=O)C(CNc1ccc(C(=O)N[C@@H](CCC(=O)O)C(=O)O)cc1)CN2 (stereo partly drawn) [LEU, leucovorin]
fold change vs vehicle control (protein LMJF.28.0490 PROPIONYL-COA C[…] CHAIN, PUTATIVE): 1.09 | fold change (protein LMJF.28.0710 HYPOTHETICAL PROTEIN, CONSERVED (SNARE associated Golgi protein, putative)): 0.76 | fold change vs vehicle control (protein LMJF.28.0930 HYPOTHETICAL PROTEIN, CONSERVED): 0.9 | fold change vs vehicle control (protein LMJF.28.0960 40S RIBOSOMAL PROTEIN S14): 1.06 | fold change vs vehicle control (protein LMJF.28.1530 ATP DEPENDENT DEAD-BOX HELICASE, PUTATIVE): 0.95 | fold change relative to vehicle control (protein LMJF.28.1730, […]-ATP-ASE SUBUNIT 2, PUTATIVE): 1.27 | fold change vs vehicle control (protein LMJF.28.2430 VACUOLAR ATP SYNTHASE SUBUNIT B, PUTATIVE): 1.01 | fold change relative to vehicle control (protein LMJF.28.2770, HEAT-SHOCK PROTEIN HSP70, PUTATIVE): 1.32 | fold change (protein LMJF.28.2910 GLUTAMATE DEHYDROGENASE, PUTATIVE): 1.1 | fold change vs vehicle control (protein LMJF.29.0120 […]-ATPASE SUBUNIT, PUTATIVE): 1.15 | fold change (protein LMJF.29.0620 ATP-BINDING CASSETTE PROTEIN SUBFAMILY A, MEMBER 10, PUTATIVE): 0.8 | fold change vs vehicle control (protein LMJF.29.0760 […] BI[…], PUTATIVE,HEAT SHOCK PROTEIN 90, PUTATIVE): 1.05 | fold change relative to vehicle control (protein LMJF.29.0850, HIGH MOBILITY GROUP PROTEIN HOMOLOG TDP-1, PUTATIVE): 2.2 | fold change vs vehicle control (protein LMJF.29.0940 HY[…], CONSERVED): 1.06 | fold change vs vehicle control (protein LMJF.29.1160 TRYPAREDOXIN): 1.05 | fold change vs vehicle control (protein LMJF.29.1240 HYPOTHETICAL PROTEIN, UNKNOWN FUNCTION): 0.99 | fold change vs vehicle control (protein LMJF.29.1270 100 kDa heat shock protein (Hsp100)): 0.99 | fold change vs vehicle control (protein LMJF.29.1310 CARNITINE/CHOLINE ACETYLTRANSFERASE, PUTATIVE): 0.93 | fold change relative to vehicle control (protein LMJF.29.1760, PAR[…] PROTEIN 1D, PUTATIVE): 1.22 | fold change vs vehicle control (protein LMJF.29.1780 D[…] PROTEIN, PUTATIVE): 1.01 | fold change (protein LMJF.29.2200 GTP-BINDING PROTEIN, PUTATIVE (dynamin-1-like protein)): 0.99 | fold change (protein LMJF.29.2310 ENOYL-COA HYDRATASE/ISOMERASE-LIKE PROTEIN): 0.93 | fold change vs vehicle control (protein LMJF.29.2360 ASPARTYL AMINOPEPTIDASE, PUTATIVE,METALLO-PEPTIDASE, CLAN MH, FAMILY M20): 1.08 | fold change (protein LMJF.29.2860 40S RIBOSOMAL PROTEIN S19-LIKE PROTEIN): 1.01 | fold change (protein LMJF.30.0580 HYPOTHETICAL PROTEIN, CONSERVED (AMP-binding enzyme, putative)): 0.99 | fold change (protein LMJF.30.0850 SURFACE PROTEIN AMASTIN, PUTATIVE): 0.99 | fold change vs vehicle control (protein LMJF.30.1250 PYRIDOXAL KINASE, PUTATIVE): 1.08 | fold change vs vehicle control (protein LMJF.30.2580 RETICULON DOMAIN PROTEIN, 22 KDA POTENTIALLY AGGRAVATING PROTEIN (PAPLE22)): 0.97 | fold change relative to vehicle control (protein LMJF.30.3090, HY[…], CONSERVED (RNA-binding protein 42, putative)): 1.16 | fold change vs vehicle control (protein LMJF.30.3240 GLUTAMYL-TRNA SYNTHETASE, PUTATIVE): 0.9 | fold change (protein LMJF.30.3380 PAS-DOMAIN CONTAINING PHOSPHOGLYCERATE KINASE, PUTATIVE): 0.97 | fold change (protein LMJF.30.3430 HYPOTHETICAL PROTEIN, CONSERVED (protein mkt1, putative)): 0.93 | fold change (protein LMJF.30.3520 S-ADENOSYLMETHIONINE SYNTHETASE): 0.9 | fold change (protein LMJF.30.3570 ZINC FINGER-DOMAIN PROTEIN, PUTATIVE): 0.81 | fold change relative to vehicle control (protein LMJF.31.0080, HY[…], CONSERVED): 1.25 | fold change vs vehicle control (protein LMJF.31.0340 AMINO ACID PERMEASE, PUTATIVE): 1.03 | fold change (protein LMJF.31.1130 N-ACYL-L-AMINO ACID AMIDOHYDROLASE, PUTATIVE): 1 | fold change vs vehicle control (protein LMJF.31.1640 THIOLASE PROTEIN-LIKE PROTEIN): 1.02 | fold change relative to vehicle control (protein LMJF.31.2150, PROSTAGLANDIN F2-ALPHA SYNTHASE/D-ARABINOSE DEHYDROGENASE): 1.25 | fold change vs vehicle control (protein LMJF.31.2250 3,2-TRANS-ENOYL-COA ISOMERASE, MIT[…], PUTATIVE): 0.92 | fold change vs vehicle control (protein LMJF.32.0750 RNA BINDING PROTEIN, PUTATIVE): 1.05 | fold change vs vehicle control (protein LMJF.32.1060 DYNEIN, PUTATIVE): 1.02 | fold change relative to vehicle control (protein LMJF.32.1820, IRON […], PUTATIVE): 1.22 | fold change relative to vehicle control (protein LMJF.32.2320, C-14 STEROL REDUCTASE, PUTATIVE): 1.12 | fold change vs vehicle control (protein LMJF.32.3870 MYOSIN XXI): 0.9 | fold change relative to vehicle control (protein LMJF.33.0240, THIOL-DEPENDENT REDUCTASE 1): 1.13 | fold change (protein LMJF.33.0280 HYPOTHETICAL PROTEIN, CONSERVED): 0.89 | fold change relative to vehicle control (protein LMJF.33.0890, HY[…], CONSERVED): 0.98 | fold change vs vehicle control (protein LMJF.33.1070 HY[…], UNKNOWN FUNCTION): 1.03 | fold change vs vehicle control (protein LMJF.33.1330 CYSTEINE CONJUGATE BETA-LYASE, AMINOTRANSFERASE- LIKE PROTEIN): 0.87 | fold change (protein LMJF.33.1590 HY[…], CONSERVED (3-ketoacyl-CoA reductase, putative)): 1.46 | fold change relative to vehicle control (protein LMJF.33.1860, ATP-BINDING CASSETTE PROTEIN SUBFAMILY D, MEMBER 3, PUTATIVE): 1.04 | fold change relative to vehicle control (protein LMJF.33.2340, SUCCINYL-COA:3-KETOACID-COENZYME A TRANSFERASE, MIT[…], PUTATIVE): 1.09 | fold change relative to vehicle control (protein LMJF.33.2440, HY[…], CONSERVED): 1.07 | fold change relative to vehicle control (protein LMJF.33.2540, CARBOXYPEPTIDASE, PUTATIVE,METALLO-PEPTIDASE, CLAN MA(E), FAMILY M32): 1.95 | fold change (protein LMJF.33.3150 40S RIBOSOMAL PROTEIN S13, PUTATIVE): 0.89 | fold change relative to vehicle control (protein LMJF.34.0140, MALATE DEHYDROGENASE): 1.53 | fold change vs vehicle control (protein LMJF.34.0440 RIBOSOMAL PROTEIN S25): 1.25 | fold change relative to vehicle control (protein LMJF.34.2580, HY[…], CONSERVED (ALBA-domain protein 3)): 1.01 | fold change relative to vehicle control (protein LMJF.34.3250, PUTATIVE PYRUVATE/INDOLE-PYRUVATE CARBOXYLASE, PUTATIVE): 1.08 | fold change (protein LMJF.34.4370 20S PROTEASOME BETA 7 SUBUNIT, (PUTATIVE)): 0.92 | fold change vs vehicle control (protein LMJF.34.4620 HYPOTHETICAL PROTEIN, CONSERVED): 0.95 | fold change (protein LMJF.35.0070 PROHIBITIN, PUTATIVE): 0.93 | fold change vs vehicle control (protein LMJF.35.0360 ENOYL-COA HYDRATASE/ISOMERASE FAMILY PROTEIN, CONSERVED): 1.24 | fold change (protein LMJF.35.0370 ATP-DEPENDENT DEAD-BOX RNA HELICASE, PUTATIVE): 0.97 | fold change (protein LMJF.35.0420 40S RIBOSOMAL PROTEIN S3A, PUTATIVE): 1.03
